In ChEMBL document CHEMBL3352042, “Synthesis of novel benzimidazole functionalized chiral thioureas and evaluation of their antibacterial and anticancer activities” (Bioorg Med Chem Lett, 2014):
The source made the active and inactive calls. The rule behind the calls is not given here.

How the values were obtained:
[1] = tested on: Micrococcus luteus; assay: Antibacterial activity against Micrococcus luteus MTC 2470 after 24 hrs by well diffusion method; type: functional
[2] = tested on: Staphylococcus aureus; assay: Antibacterial activity against Staphylococcus aureus MTCC 96 after 24 hrs by well diffusion method; type: functional
[3] = tested on: Staphylococcus aureus; assay: Antibacterial activity against Staphylococcus aureus MLS16 MTCC 2940 after 24 hrs by well diffusion method; type: functional
[4] = tested on: HeLa; assay: Cytotoxicity against human HeLa cells by MTT assay; type: functional, cell-based; conditions: Homo sapiens, HeLa; read-out: IC50
[5] = tested on: Escherichia coli; assay: Antibacterial activity against Escherichia coli MTCC 739 after 24 hrs by well diffusion method; type: functional
[6] = tested on: Raoultella planticola; assay: Antibacterial activity against Klebsiella planticola MTCC 530 after 24 hrs by well diffusion method; type: functional
[7] = tested on: Bacillus subtilis; assay: Antibacterial activity against Bacillus subtilis MTCC 121 after 24 hrs by well diffusion method; type: functional
[8] = tested on: Pseudomonas aeruginosa; assay: Antibacterial activity against Pseudomonas aeruginosa MTCC 2453 after 24 hrs by well diffusion method; type: functional
[9] = tested on: DU-145; assay: Cytotoxicity against human DU145 cells by MTT assay; type: functional, cell-based; conditions: Homo sapiens, DU-145; read-out: IC50
[10] = tested on: MCF7; assay: Cytotoxicity against human MCF7 cells by MTT assay; type: functional, cell-based; conditions: Homo sapiens, MCF7; read-out: IC50
[11] = tested on: A549; assay: Cytotoxicity against human A549 cells by MTT assay; type: functional, cell-based; conditions: Homo sapiens, A549; read-out: IC50

MIC [1]: inactive | MIC [2]: inactive | MIC [3]: inactive | MIC [5]: inactive | MIC [7]: inactive | MIC [8]: inactive
Structure (SMILES): C[C@@H](NC(=S)Nc1ccccc1)c1nc2ccccc2[nH]1
IC50 [4]: 12.4 µM | MIC [6]: inactive | IC50 [9]: 22.1 µM | IC50 [10]: 16.4 µM | IC50 [11]: 14.8 µM
